Reference: patent publication US20110021547A1, “Substantially Pure and a Stable Crystalline Form of Bosentan” (ACTAVIS GROUP PTC EHF, priority 2008, published 2011)
Like-named read-outs stand apart in the source and are kept apart here.

Key:
[1] = Particle size distribution by laser diffraction (Malvern Master Sizer 2000); assay type: physicochemical
Description: As used herein, DX means that X percent of the particles have a diameter less than a specified diameter D. Thus, a D90 or d(0.9) of less than 300 microns means that 90 volume-percent of the micronized particles in a composition have a diameter less than 300 microns.
As used herein, “Particle Size Distribution (P.S.D)” means the cumulative volume size distribution of equivalent spherical diameters as determined by laser diffraction in Malvern Master Sizer 2000 equipment or its equivalent. “Mean particle size distribution, i.e., D50” correspondingly, means the median of said particle size distribution.

Tapped density = assay type: physicochemical
[2] = Storage stability of crystalline form A5 (temperature / relative humidity); assay type: physicochemical
Method: The term “remains stable”, as defined herein, refers to lack of formation of impurities, while being stored as described herein. The stability of crystalline form A5 is measured by maintaining crystalline form A5 at a temperature of about 40° C. at a relative humidity of about 75% for at least about 1 month, specifically for a period of 6 months, or at a temperature of about 25° C. at a relative humidity of about 60% for at least about 6 months.

[3] = Polymorphic stability of form A5 after compression or particle size reduction; assay type: physicochemical
Method: The X-Ray powder diffraction was measured by an X-ray powder Diffractometer equipped with a Cu-anode (λ=1.54 Angstrom), X-ray source operated at 40 kV, 40 mA and a Ni filter is used to strip K-beta radiation. Two-theta calibration is performed using an NIST SRM 1976, Corundum standard. The sample was analyzed using the following instrument parameters: measuring range=3-45° 2θ; step width=0.01579°; and measuring time per step=0.11 second.

[4] = cited from earlier work

Row | Particle Size Distribution d(0.1) [1] [microns] | Particle Size Distribution d(0.5) [1] [microns] | Particle Size Distribution d(0.9) [1] | Compound | further results
1 | 14.85 | 53.73 | 109.61 microns | COc1ccccc1Oc1c(NS(=O)(=O)c2ccc(C(C)(C)C)cc2)nc(-c2ncccn2)nc1OCCO [Example 9D, Bosentan] | 
2 | 7.89 | 31.92 | 69.43 microns | COc1ccccc1Oc1c(NS(=O)(=O)c2ccc(C(C)(C)C)cc2)nc(-c2ncccn2)nc1OCCO [Example 9C, Bosentan] | 
3 |  |  |  | COc1ccccc1Oc1c(NS(=O)(=O)c2ccc(C(C)(C)C)cc2)nc(-c2ncccn2)nc1OCCO [Example 4, Bosentan] | Tapped density (Tapped density): 0.714 g/mL
4 |  |  |  | COc1ccccc1Oc1c(NS(=O)(=O)c2ccc(C(C)(C)C)cc2)nc(-c2ncccn2)nc1OCCO [Example 6, Bosentan] | Tapped density (Tapped density): 0.667 g/mL
5 |  |  |  | COc1ccccc1Oc1c(NS(=O)(=O)c2ccc(C(C)(C)C)cc2)nc(-c2ncccn2)nc1OCCO [Example 3, Bosentan] | Tapped density (Tapped density): 0.668 g/mL
6 | 13.39 | 85.61 | 231.09 microns | COc1ccccc1Oc1c(NS(=O)(=O)c2ccc(C(C)(C)C)cc2)nc(-c2ncccn2)nc1OCCO [Example 7, Bosentan] | 
7 | 17.03 | 58.84 | 127.11 microns | COc1ccccc1Oc1c(NS(=O)(=O)c2ccc(C(C)(C)C)cc2)nc(-c2ncccn2)nc1OCCO [Example 9E, Bosentan] | 
8 |  |  |  | COc1ccccc1Oc1c(NS(=O)(=O)c2ccc(C(C)(C)C)cc2)nc(-c2ncccn2)nc1OCCO [bosentan crystalline form A5, Bosentan] | stability on storage, tendency to convert to other forms ([2]; about 25° C., relative humidity about 60%, at least about 6 months): more stable; crystalline form and stability on storage ([2]; about 25±2° C., relative humidity about 60±5%, 6 months): remains in the same crystalline form and stable; crystalline form and stability on storage ([2]; about 25±2° C., relative humidity about 60±5%, at least one month): remains in the same crystalline form and stable; stability on storage, tendency to convert to other forms ([2]; about 40° C., relative humidity about 75%, at least about 1 month, specifically 6 months): more stable; crystalline form and stability on storage ([2]; about 40±2° C., relative humidity about 75±5%, 6 months): remains in the same crystalline form and stable; crystalline form and stability on storage ([2]; about 40±2° C., relative humidity about 75±5%, at least one month): remains in the same crystalline form and stable; crystalline form and stability after mechanical particle size reduction ([3]; cutting, chipping, crushing, milling, grinding, micronizing): remains in the same crystalline faun and stable; crystalline form and stability after compression ([3]; pressure of about 7.5 tons/cm^2 for 10 to 15 minutes, checked by X-ray diffractometer): remains in the same crystalline form and stable
9 | 11.76 | 38.96 | 78.25 microns | COc1ccccc1Oc1c(NS(=O)(=O)c2ccc(C(C)(C)C)cc2)nc(-c2ncccn2)nc1OCCO [Example 9B, Bosentan] | 
10 |  |  |  | COc1ccccc1Oc1c(NS(=O)(=O)c2ccc(C(C)(C)C)cc2)nc(-c2ncccn2)nc1OCCO [Example 5, Bosentan] | Tapped density (Tapped density): 0.626 g/mL
11 |  | 28.95 | 120.88 microns | COc1ccccc1Oc1c(NS(=O)(=O)c2ccc(C(C)(C)C)cc2)nc(-c2ncccn2)nc1OCCO [Example 9A, Bosentan] | 
12 |  |  | less than 130 microns | COc1ccccc1Oc1c(NS(=O)(=O)c2ccc(C(C)(C)C)cc2)nc(-c2ncccn2)nc1OCCO [Example 9, Bosentan] | 
13 |  |  | less than 60 microns | COc1ccccc1Oc1c(NS(=O)(=O)c2ccc(C(C)(C)C)cc2)nc(-c2ncccn2)nc1OCCO [Example 8, Bosentan] | 
14 |  |  |  | COc1ccccc1Oc1c(NS(=O)(=O)c2ccc(C(C)(C)C)cc2)nc(-c2ncccn2)nc1OCCO [Bosentan, p-tert-butyl-N-[6-(2-hydroxyethoxy)-5-(2-methoxyphenoxy)-2-(2-pyrimidinyl)-4-pyrimidinyl]benzenesulfonamide monohydrate] | solubility in aqueous solution at low pH ([4]; pH 1.1): 0.1 mg/100 ml; solubility in aqueous solution at low pH ([4]; pH 4.0): 0.1 mg/100 ml; solubility in aqueous solution at low pH ([4]; pH 5.0): 0.2 mg/100 ml; solubility in water ([4]; water): 1.0 mg/100 ml
